Where a name gives a salt, the structure may show the parent alone.
Columns and labels:
[1] = target: T1, α1D (adrenergic receptor) (Homo sapiens, UniProt P25100); experiment: radioligand competition binding, [3H]Prazosin
T1 construct: Eurofins

[2] = target: T2, α2A (adrenergic receptor) (Homo sapiens, UniProt P08913); experiment: radioligand competition binding, [3H]RX 821002
T2 construct: Eurofins
T2 sequence (P08913 1-465): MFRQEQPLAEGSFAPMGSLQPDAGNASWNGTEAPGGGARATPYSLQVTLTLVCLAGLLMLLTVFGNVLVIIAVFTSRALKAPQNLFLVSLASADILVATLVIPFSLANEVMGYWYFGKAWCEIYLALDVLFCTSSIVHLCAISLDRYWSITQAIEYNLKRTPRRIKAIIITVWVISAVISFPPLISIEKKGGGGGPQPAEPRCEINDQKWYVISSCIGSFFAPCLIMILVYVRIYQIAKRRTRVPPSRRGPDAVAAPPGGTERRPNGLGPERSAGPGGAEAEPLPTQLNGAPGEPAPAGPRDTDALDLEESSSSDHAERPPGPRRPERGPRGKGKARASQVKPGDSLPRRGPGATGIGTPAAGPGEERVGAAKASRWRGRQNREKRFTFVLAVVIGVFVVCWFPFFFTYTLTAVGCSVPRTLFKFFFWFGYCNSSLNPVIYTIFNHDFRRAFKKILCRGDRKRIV

M5 (muscarinic receptor) = target: T3, M5 (muscarinic receptor) (Homo sapiens, UniProt P08912); experiment: radioligand competition binding, [3H]4-DAMP
T3 construct: Eurofins
T3 sequence (P08912 1-532): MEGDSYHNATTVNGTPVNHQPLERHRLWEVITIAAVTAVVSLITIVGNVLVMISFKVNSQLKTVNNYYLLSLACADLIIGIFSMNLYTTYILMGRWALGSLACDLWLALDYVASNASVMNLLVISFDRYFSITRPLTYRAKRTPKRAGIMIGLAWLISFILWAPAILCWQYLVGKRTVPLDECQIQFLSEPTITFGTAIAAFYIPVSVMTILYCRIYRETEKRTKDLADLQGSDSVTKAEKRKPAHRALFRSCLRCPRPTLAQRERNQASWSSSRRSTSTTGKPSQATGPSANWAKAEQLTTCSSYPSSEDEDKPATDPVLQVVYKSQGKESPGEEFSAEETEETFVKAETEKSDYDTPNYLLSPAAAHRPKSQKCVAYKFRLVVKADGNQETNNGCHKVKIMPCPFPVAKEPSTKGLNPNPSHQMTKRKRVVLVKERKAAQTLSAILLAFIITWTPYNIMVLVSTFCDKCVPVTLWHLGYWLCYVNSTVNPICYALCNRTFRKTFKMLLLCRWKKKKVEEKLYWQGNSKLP

Estrogen receptor ERα = target: T4, Estrogen receptor ERα (Homo sapiens, UniProt P03372); experiment: radioligand competition binding, [3H]Estradiol
T4 construct: Eurofins
T4 sequence (P03372 whole entry): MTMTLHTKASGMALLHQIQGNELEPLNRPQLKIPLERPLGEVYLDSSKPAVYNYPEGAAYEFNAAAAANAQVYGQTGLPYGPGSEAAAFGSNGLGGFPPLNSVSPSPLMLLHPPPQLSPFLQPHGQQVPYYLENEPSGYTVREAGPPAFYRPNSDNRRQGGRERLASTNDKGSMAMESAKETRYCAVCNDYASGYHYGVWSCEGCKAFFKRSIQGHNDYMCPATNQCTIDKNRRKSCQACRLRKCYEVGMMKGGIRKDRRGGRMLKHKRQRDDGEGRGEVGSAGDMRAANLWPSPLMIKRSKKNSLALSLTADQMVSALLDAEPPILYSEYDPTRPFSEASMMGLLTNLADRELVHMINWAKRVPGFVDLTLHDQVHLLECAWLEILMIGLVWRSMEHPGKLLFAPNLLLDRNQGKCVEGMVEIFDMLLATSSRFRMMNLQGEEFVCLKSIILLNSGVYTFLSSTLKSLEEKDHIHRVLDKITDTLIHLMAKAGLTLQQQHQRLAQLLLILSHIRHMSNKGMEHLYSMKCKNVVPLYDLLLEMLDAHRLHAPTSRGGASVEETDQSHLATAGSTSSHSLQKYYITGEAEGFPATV

K+ Channel (KATP) = target: T5, K+ Channel (KATP) (Cricetus cricetus, UniProt Q09427); experiment: radioligand competition binding, [3H]Glyburide; design: species or system hamster
T5 construct: Eurofins
T5 sequence (Q09427 whole entry): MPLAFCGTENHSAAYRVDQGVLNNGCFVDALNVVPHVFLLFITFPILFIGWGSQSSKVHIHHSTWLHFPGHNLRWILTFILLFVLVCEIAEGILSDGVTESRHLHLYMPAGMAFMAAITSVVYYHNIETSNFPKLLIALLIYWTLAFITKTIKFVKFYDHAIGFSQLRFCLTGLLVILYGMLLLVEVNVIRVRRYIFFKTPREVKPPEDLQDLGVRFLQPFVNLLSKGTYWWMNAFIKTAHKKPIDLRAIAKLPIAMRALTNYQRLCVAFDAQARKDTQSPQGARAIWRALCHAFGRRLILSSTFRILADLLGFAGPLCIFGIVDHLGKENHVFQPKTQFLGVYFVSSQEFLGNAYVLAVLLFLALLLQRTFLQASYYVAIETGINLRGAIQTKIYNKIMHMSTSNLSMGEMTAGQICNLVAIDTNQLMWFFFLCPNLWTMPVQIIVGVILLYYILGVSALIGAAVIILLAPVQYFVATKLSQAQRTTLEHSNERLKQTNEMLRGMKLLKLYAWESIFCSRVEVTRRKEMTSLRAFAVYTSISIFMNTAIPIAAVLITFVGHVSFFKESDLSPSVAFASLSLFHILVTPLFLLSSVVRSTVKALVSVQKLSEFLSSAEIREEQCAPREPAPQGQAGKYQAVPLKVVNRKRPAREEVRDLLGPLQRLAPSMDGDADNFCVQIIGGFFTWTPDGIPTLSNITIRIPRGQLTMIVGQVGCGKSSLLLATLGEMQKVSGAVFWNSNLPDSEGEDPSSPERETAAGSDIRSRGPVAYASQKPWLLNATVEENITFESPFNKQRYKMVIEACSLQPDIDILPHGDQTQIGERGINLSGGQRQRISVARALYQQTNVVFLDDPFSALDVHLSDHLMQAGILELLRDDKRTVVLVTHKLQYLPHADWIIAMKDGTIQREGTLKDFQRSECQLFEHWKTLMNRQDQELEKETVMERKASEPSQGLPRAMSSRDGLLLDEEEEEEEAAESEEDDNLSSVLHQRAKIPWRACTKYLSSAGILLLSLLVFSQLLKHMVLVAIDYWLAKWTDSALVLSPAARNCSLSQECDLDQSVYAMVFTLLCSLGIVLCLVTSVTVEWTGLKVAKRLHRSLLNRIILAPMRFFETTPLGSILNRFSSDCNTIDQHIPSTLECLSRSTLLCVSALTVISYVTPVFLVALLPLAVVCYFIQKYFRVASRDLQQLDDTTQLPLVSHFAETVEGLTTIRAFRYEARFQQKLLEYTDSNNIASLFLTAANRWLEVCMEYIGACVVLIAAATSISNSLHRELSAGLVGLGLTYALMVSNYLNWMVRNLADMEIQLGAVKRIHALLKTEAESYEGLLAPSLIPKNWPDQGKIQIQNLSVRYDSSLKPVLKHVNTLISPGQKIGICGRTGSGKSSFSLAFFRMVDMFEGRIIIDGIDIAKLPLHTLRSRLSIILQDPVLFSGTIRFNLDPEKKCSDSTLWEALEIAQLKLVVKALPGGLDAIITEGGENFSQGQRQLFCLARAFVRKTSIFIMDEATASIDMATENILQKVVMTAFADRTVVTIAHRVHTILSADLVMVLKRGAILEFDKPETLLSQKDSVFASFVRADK

Sigma receptor σ1 = target: T6, Sigma receptor σ1 (Homo sapiens, UniProt Q99720); experiment: radioligand competition binding, [3H]Pentazocine
T6 construct: Eurofins (contract laboratory)
T6 sequence (Q99720 whole entry): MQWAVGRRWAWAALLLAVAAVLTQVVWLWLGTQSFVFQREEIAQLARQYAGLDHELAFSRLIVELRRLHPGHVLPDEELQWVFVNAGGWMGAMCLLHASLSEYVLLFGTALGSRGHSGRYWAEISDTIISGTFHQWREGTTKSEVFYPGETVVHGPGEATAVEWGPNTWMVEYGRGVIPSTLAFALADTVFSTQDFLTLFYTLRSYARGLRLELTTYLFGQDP

[3] = target: NMDA receptor (Glutamate) (Rattus norvegicus, UniProt Q00959); experiment: biochemical; details: read-out: % inhibition of the specific radioligand binding
NMDA receptor (Glutamate), sequence (Q00959 23-1464, other chains not shown): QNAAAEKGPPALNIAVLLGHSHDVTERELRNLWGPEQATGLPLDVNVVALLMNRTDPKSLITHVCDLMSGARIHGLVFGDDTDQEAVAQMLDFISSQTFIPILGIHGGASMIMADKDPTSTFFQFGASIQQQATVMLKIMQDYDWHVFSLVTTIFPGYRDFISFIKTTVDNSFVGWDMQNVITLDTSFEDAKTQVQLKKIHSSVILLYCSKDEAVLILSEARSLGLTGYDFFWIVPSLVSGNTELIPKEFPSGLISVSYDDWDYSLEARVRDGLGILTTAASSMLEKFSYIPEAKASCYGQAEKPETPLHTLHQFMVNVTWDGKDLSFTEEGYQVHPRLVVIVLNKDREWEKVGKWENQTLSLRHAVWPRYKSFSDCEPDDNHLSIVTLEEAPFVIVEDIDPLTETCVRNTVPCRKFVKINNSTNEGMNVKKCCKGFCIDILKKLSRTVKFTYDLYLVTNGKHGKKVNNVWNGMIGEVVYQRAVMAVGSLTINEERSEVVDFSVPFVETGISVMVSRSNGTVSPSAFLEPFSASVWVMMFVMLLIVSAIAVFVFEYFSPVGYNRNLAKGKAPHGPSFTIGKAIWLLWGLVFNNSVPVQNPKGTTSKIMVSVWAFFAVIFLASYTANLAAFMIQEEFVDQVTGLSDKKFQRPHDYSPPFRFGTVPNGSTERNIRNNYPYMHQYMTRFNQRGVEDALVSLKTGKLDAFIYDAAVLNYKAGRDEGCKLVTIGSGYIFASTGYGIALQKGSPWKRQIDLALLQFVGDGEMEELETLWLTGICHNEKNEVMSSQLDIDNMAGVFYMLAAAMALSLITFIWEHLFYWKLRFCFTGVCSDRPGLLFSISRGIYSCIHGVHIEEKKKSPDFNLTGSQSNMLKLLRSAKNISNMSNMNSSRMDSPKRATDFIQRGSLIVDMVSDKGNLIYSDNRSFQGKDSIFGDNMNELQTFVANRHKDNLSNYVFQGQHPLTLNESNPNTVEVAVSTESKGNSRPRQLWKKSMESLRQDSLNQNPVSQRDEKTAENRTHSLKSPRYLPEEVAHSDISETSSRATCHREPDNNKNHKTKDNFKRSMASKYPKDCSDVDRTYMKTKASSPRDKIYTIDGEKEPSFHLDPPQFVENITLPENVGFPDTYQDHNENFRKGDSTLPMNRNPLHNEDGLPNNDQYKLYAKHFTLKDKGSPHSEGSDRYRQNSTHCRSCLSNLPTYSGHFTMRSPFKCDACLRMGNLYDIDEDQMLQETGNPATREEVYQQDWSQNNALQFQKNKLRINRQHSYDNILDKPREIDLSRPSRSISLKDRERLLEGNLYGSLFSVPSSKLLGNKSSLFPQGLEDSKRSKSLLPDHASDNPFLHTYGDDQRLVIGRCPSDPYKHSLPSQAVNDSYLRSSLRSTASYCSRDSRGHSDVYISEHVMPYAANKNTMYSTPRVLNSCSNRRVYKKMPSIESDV

[4] = estimated from the % inhibition data
[5] = read-out: % inhibition of the specific radioligand binding

T1 sequence (P25100 whole entry): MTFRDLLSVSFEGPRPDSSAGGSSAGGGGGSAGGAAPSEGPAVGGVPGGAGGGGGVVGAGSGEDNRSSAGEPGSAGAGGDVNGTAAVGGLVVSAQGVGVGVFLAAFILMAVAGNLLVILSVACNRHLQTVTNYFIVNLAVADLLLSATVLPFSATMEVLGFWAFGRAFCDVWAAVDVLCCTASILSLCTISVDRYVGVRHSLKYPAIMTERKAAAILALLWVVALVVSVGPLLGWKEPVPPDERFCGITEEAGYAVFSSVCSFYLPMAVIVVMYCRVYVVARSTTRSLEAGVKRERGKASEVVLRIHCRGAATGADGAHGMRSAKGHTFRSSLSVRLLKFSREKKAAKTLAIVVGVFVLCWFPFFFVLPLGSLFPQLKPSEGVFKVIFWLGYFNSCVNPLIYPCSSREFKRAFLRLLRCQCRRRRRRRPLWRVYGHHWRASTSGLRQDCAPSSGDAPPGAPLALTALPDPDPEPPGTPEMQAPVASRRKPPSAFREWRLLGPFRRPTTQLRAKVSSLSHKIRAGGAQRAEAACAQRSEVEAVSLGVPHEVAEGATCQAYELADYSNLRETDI

Which results are given for `COc1cc(C(F)(F)F)c(OC)cc1[C@@H]1CCCNC1` [(S)-11, 3-(2,5-Dimethoxy-4-(trifluoromethyl)phenyl)piperidine Hydrochloride]?
IC50 [1, 4]: > 10 µM; inhibition at 10 µM [1, 5]: 27%; IC50 [2, 4]: > 10 µM; inhibition at 1 µM [2, 5]: 1%; inhibition at 10 µM [2, 5]: 34%; IC50 (M5 (muscarinic receptor); [4]): ~1 µM; inhibition at 0.1 µM (M5 (muscarinic receptor); [5]): 9%; inhibition at 1 µM (M5 (muscarinic receptor); [5]): 57%; inhibition at 10 µM (M5 (muscarinic receptor); [5]): 92%; IC50 (Estrogen receptor ERα; [4]): > 10 µM; inhibition at 10 µM (Estrogen receptor ERα; [5]): -2%; IC50 (K+ Channel (KATP); [4]): > 10 µM; inhibition at 10 µM (K+ Channel (KATP); [5]): -2%; IC50 (Sigma receptor σ1; [4]): 1 to 10 µM; inhibition at 10 µM (Sigma receptor σ1; [5]): 84%; inhibition at 10 µM [3]: -8%

— PMC11089506 (Journal of Medicinal Chemistry, 2024)
